Experimental data published in publication PMC12057046, “Elucidation of short linear motif-based interactions of the MIT and rhodanese domains of the ubiquitin-specific protease 8” (Biology Direct, 2025).

target: T1, USP8 Rhod domain (Homo sapiens, UniProt P40818); assay: Peptide-phage display-based deep mutational scanning (DMS), USP8 Rhod domain; format: binding; details: ProP-PD DMS, bait USP8_Rhodanese__P40818_174_317; pair wild-type GMERVLGGLSSPLRLL (wt_00013) vs mutant; positive where wild-type fraction is higher, negative where mutant fraction is higher
T1 construct: USP8 Rhod (174–317) (UniProt: P40818); GST (cleaved yes); made in house; host or cells: Escherichia coli BL21-Gold (DE3)
T1 sequence (P40818 174-317): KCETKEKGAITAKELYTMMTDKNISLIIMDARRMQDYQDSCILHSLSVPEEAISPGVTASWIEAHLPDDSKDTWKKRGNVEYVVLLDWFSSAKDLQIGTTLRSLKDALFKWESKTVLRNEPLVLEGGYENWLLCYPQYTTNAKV
Experimental: Four rounds of phage selections were carried out using the second generation human disorderome library or the constructed deep mutational scanning library. At least three individual replicates were used for each bait protein. 10 µg of GST-tagged proteins or GST control (diluted in PBS from the stock of proteins kept in the purification elution buffer) were immobilized in 100 µL PBS on a 96-well MaxiSorp (Nunc) plate overnight at 4 °C. The plates were incubated with blocking buffer (with 0.5% BSA in PBS) for 1 h at 4 °C followed by washing with 0.05% Tween 20 in PBS four times. The naïve phage library (10^11 CFU) was diluted in 1/5th volume PEG/NaCl (20% PEG-8000, 0.4 M NaCl) and 1X PBS, incubated on ice for 10 min and centrifuged at 10,000 [drawing 3] g for 10 min. The pellet was resuspended in the volume of PBS (100 µL/ well). The GST-coated control plate was incubated with 100 µL library per well in PBS for 1 h at 4 °C to remove non-specific binders. The supernatant was transferred to the target wells and incubated for 2 h at 4 °C. The wells were washed five times with 0.05% Tween 20 in PBS and the bound phages were eluted with 100 µL per well log-phase E. coli OmniMAX by incubating at 37° C while shaking. After 30 min, M13KO7 helper phages were added and incubated for an additional 45 min. The bacterial cultures were transferred to 1 mL 2YT supplemented with 100 µg/mL carbenicillin, 30 µg/mL kanamycin and 0.3 mM IPTG and grew overnight at 37 °C while shaking. The following day the cultures were centrifuged for 10 min at 2,000 [drawing 4] g, 4 °C. 1/10th volume of 10 [drawing 5] PBS was added to adjust the pH and heated at 65 °C for 10 min. The phage pools from each round were used as in-phages for the next round of selections.
The samples were prepared for NGS as previously described. […] The PCR products were normalized with 25 µL Mag-bind Total Pure NGS beads (Omega Biotek) and 10 µL of each eluted sample (Qiagen Elution Buffer) was pooled and cleaned-up with a PCR purification kit (Qiagen). The PCR product was confirmed by 2% agarose electrophoresis and the band was extracted with QIAquick Gel extraction Kit (Qiagen) and eluted with 30 µL TE buffer. The dsDNA was quantified using QuantiT PicoGreen dsDNA Assay Kit (Thermo Fisher) and sent for NGS (Illumina MiSeq v3, 1 × 150 bp read setup, 20% PhiX, NGI SciLifeLab facility, Sweden). The NGS data were demultiplexed, adapter regions were trimmed and sequences with an average quality of at least 20 were translated to peptide sequences. The NGS data were analysed using custom Python scripts. The total read NGS counts for each selection experiment of each peptide sequence were compiled and annotated in PepTools (https://slim.icr.ac.uk/tools/peptools/). Since ProP-PD is in essence a competition assay, the possibility of the input phage library influencing the selection outcome was explored. […] Pearson correlation coefficient and p-value were calculated using Python’s SciPy library.

First: GMERVLGGFSSPLRLL
Second: GMERVLGGGSSPLRLL
The hit_pair_ratio of the first is higher: 53.66 for the first, 20.85 for the second.

Going from GMERVLGGHSSPLRLL to GMERVLGGKSSPLRLL, the hit_pair_ratio falls from 49.95 to 20.99.

First: GMERVLGGLASPLRLL
Second: GMERVLGGLESPLRLL
The hit_pair_ratio of the first is higher: 321.97 for the first, 131.67 for the second.

First: GMERVLGGLHSPLRLL
Second: GMERVLGGLISPLRLL
The hit_pair_ratio of the first is lower: 1.07 for the first, 321.97 for the second.

Compared with GMERVLGGLPSPLRLL, GMERVLGGLSAPLRLL is higher in hit_pair_ratio: 131.67 for the first, 160.99 for the second.

Compared with GMERVLGGLSDPLRLL, GMERVLGGLSEPLRLL is higher in hit_pair_ratio: -19.71 for the first, 15.92 for the second.

Going from GMERVLGGLSFPLRLL to GMERVLGGLSNPLRLL, the hit_pair_ratio falls from 80.49 to -9.56.

GMERVLGGLSRPLRLL and GMERVLGGLSSLLRLL are the same in hit_pair_ratio: 321.97 for the first, 321.97 for the second.

Compared with GMERVLGGLSSPARLL, GMERVLGGLSSPDRLL is higher in hit_pair_ratio: 46.00 for the first, 54.66 for the second.

Sequence GMERVLGGLSSPERLL has a hit_pair_ratio of 4.36.

same assay, conditions: ProP-PD pairs, bait USP8_Rhodanese__P40818_174_317; wild-type/mutant pair, wild type KIAA1614 569-584 GMERVLGGLSSPLRLL (wt_00013)

First: GLERVLGGLSSPLRLL
Second: GMARVLGGLSSPLRLL
The hit_pair_ratio of the first is lower: 1.84 for the first, 8.89 for the second.

First: GMDRVLGGLSSPLRLL
Second: GMEAVLGGLSSPLRLL
The hit_pair_ratio of the first is lower: -1.75 for the first, 131.67 for the second.

Going from GMELVLGGLSSPLRLL to GMENVLGGLSSPLRLL, the hit_pair_ratio falls from 160.99 to 107.32.

Compared with GMERALGGLSSPLRLL, GMERDLGGLSSPLRLL is lower in hit_pair_ratio: 4.69 for the first, -11.89 for the second.

Compared with GMERELGGLSSPLRLL, GMERFLGGLSSPLRLL is higher in hit_pair_ratio: -10.69 for the first, -9.37 for the second.

Compared with GMERGLGGLSSPLRLL, GMERHLGGLSSPLRLL is lower in hit_pair_ratio: -1.02 for the first, -4.18 for the second.

Compared with GMERILGGLSSPLRLL, GMERKLGGLSSPLRLL is higher in hit_pair_ratio: 20.85 for the first, 30.82 for the second.

Compared with GMERLLGGLSSPLRLL, GMERMLGGLSSPLRLL is lower in hit_pair_ratio: 5.91 for the first, -1.32 for the second.

Going from GMERNLGGLSSPLRLL to GMERPLGGLSSPLRLL, the hit_pair_ratio rises from -2.85 to 1.07.

Going from GMERQLGGLSSPLRLL to GMERRLGGLSSPLRLL, the hit_pair_ratio rises from -6.89 to 16.75.

First: GMERSLGGLSSPLRLL
Second: GMERTLGGLSSPLRLL
The hit_pair_ratio of the first is higher: 12.88 for the first, -5.12 for the second.

Going from GMERVFGGLSSPLRLL to GMERVGGGLSSPLRLL, the hit_pair_ratio falls from 321.97 to 29.56.

Going from GMERVIGGLSSPLRLL to GMERVLAGLSSPLRLL, the hit_pair_ratio rises from -3.21 to -1.35.

Going from GMERVLDGLSSPLRLL to GMERVLEGLSSPLRLL, the hit_pair_ratio rises from -20.23 to -2.19.

Going from GMERVLFGLSSPLRLL to GMERVLGDLSSPLRLL, the hit_pair_ratio rises from -3.55 to 321.97.

Going from GMERVLGGASSPLRLL to GMERVLGGDSSPLRLL, the hit_pair_ratio falls from 1.62 to -19.26.

Going from GMERVLGGESSPLRLL to GMERVLGGISSPLRLL, the hit_pair_ratio rises from -80.43 to 4.20.

same assay, conditions: bait USP8_Rhodanese__P40818_174_317; wild-type/mutant pair ratio of averaged fractions; negative values where mutant fraction is higher

Compared with GLALWEAKMKSLAERA, GLALWEAKMKTLAERA is higher in hit_pair_ratio: 1.39 for the first, 33.74 for the second.

Compared with GLALWEAKMKVLAERA, GLALWEAKMKWLAERA is lower in hit_pair_ratio: 553.50 for the first, 221.40 for the second.

Compared with GLALWEAKMKYLAERA, GLALWEAKMLQLAERA is lower in hit_pair_ratio: 55.35 for the first, 26.20 for the second.

Compared with GLALWEAKMMQLAERA, GLALWEAKMPQLAERA is higher in hit_pair_ratio: 417.62 for the first, 553.50 for the second.

First: GLALWEAKMQQLAERA
Second: GLALWEAKMRQLAERA
The hit_pair_ratio of the first is higher: 31.63 for the first, 1.94 for the second.

First: GLALWEAKMSQLAERA
Second: GLALWEAKMTQLAERA
The hit_pair_ratio of the first is lower: -7.21 for the first, 29.92 for the second.

Going from GLALWEAKMVQLAERA to GLALWEAKMWQLAERA, the hit_pair_ratio rises from -1.44 to 2.24.

Sequence GLALWEAKMYQLAERA has a hit_pair_ratio of 31.05.

same assay, conditions: wild type/mutant pair; bait USP8_Rhodanese__P40818_174_317; vs hit_library_peptide_wt GLALWEAKMKQLAERA; negative where mutant fraction exceeds wild type; ProP-PD pairs (sheet S7.B)

Going from GLALWEAKMNQLAERA to GLALWEAKNKQLAERA, the hit_pair_ratio rises from -19.47 to 276.75.

Going from GLALWEAKPKQLAERA to GLALWEAKQKQLAERA, the hit_pair_ratio falls from 195.90 to 151.61.

Compared with GLALWEAKRKQLAERA, GLALWEAKSKQLAERA is lower in hit_pair_ratio: 44.28 for the first, -2.49 for the second.

Going from GLALWEAKTKQLAERA to GLALWEAKVKQLAERA, the hit_pair_ratio rises from 26.45 to 369.00.

Going from GLALWEAKWKQLAERA to GLALWEAKYKQLAERA, the hit_pair_ratio rises from 2.15 to 123.00.

Compared with GLALWEANMKQLAERA, GLALWEAPMKQLAERA is higher in hit_pair_ratio: 208.81 for the first, 276.75 for the second.

Going from GLALWEAQMKQLAERA to GLALWEEKMKQLAERA, the hit_pair_ratio falls from 1107.01 to 553.50.

Going from GLALWEFKMKQLAERA to GLALWEGKMKQLAERA, the hit_pair_ratio falls from 1107.01 to 68.11.

Compared with GLALWEHKMKQLAERA, GLALWEIKMKQLAERA is higher in hit_pair_ratio: 2.05 for the first, 123.00 for the second.

Going from GLALWELKMKQLAERA to GLALWEMKMKQLAERA, the hit_pair_ratio falls from 1107.01 to 20.50.

Going from GLALWENKMKQLAERA to GLALWEPKMKQLAERA, the hit_pair_ratio rises from 24.65 to 87.84.

Going from GLALWEQKMKQLAERA to GLALWERKMKQLAERA, the hit_pair_ratio rises from -1.30 to 1107.01.

Going from GLALWESKMKQLAERA to GLALWETKMKQLAERA, the hit_pair_ratio falls from 208.81 to 11.88.

First: GLALWEVKMKQLAERA
Second: GLALWEWKMKQLAERA
The hit_pair_ratio of the first is higher: 92.62 for the first, 23.98 for the second.

Going from GLALWEYKMKQLAERA to GLALWFAKMKQLAERA, the hit_pair_ratio rises from 208.81 to 553.50.

Compared with GLALWGAKMKQLAERA, GLALWHAKMKQLAERA is higher in hit_pair_ratio: 24.44 for the first, 123.00 for the second.

First: GLALWSAKMKQLAERA
Second: GLALWVAKMKQLAERA
The hit_pair_ratio of the first is lower: 21.71 for the first, 417.62 for the second.

First: GLALWYAKMKQLAERA
Second: GLAMWEAKMKQLAERA
The hit_pair_ratio of the first is higher: 417.62 for the first, -5.97 for the second.

Compared with GLANWEAKMKQLAERA, GLAPWEAKMKQLAERA is higher in hit_pair_ratio: 4.24 for the first, 1107.01 for the second.

Compared with GLAQWEAKMKQLAERA, GLARWEAKMKQLAERA is higher in hit_pair_ratio: 10.90 for the first, 12.82 for the second.

First: GLASWEAKMKQLAERA
Second: GLATWEAKMKQLAERA
The hit_pair_ratio of the first is higher: 101.08 for the first, 8.05 for the second.

Going from GLAVWEAKMKQLAERA to GLDLWEAKMKQLAERA, the hit_pair_ratio falls from -2.03 to -4.35.

Compared with GLELWEAKMKQLAERA, GLFLWEAKMKQLAERA is higher in hit_pair_ratio: -13.35 for the first, 1107.01 for the second.

Going from GLGLWEAKMKQLAERA to GLHLWEAKMKQLAERA, the hit_pair_ratio rises from 123.66 to 553.50.

Compared with GLILWEAKMKQLAERA, GLKLWEAKMKQLAERA is lower in hit_pair_ratio: 1107.01 for the first, 369.00 for the second.

Going from GLLLWEAKMKQLAERA to GLMLWEAKMKQLAERA, the hit_pair_ratio falls from 1107.01 to 20.89.

Compared with GLPLWEAKMKQLAERA, GLQLWEAKMKQLAERA is lower in hit_pair_ratio: 10.62 for the first, -1.71 for the second.

Going from GLSLWEAKMKQLAERA to GLTLWEAKMKQLAERA, the hit_pair_ratio rises from 33.04 to 92.62.

Going from GLVLWEAKMKQLAERA to GLWLWEAKMKQLAERA, the hit_pair_ratio rises from 27.71 to 49.74.

Going from GLYLWEAKMKQLAERA to GMALWEAKMKQLAERA, the hit_pair_ratio falls from 27.03 to 7.96.
